Reference: US20250120941A1, “Composition for Promoting the Assimilation of an Oligosaccharide” (MORINAGA MILK INDUSTRY CO., LTD., priority 2021, published 2025)

Tests used:
[1] = test system: intestinal bacteria of infant fecal sample (feces B); test: Fecal culture: oligosaccharide residual rate in culture supernatant (Test Example 1); assay type: cell-based, human infant
Procedure: Fecal samples were obtained from two healthy infants (feces A from an infant and feces B from an infant). The samples were collected immediately after the defecation and immediately moved to 10° C. or lower under an anaerobic condition. The collected feces were diluted with 10 times the amount of physiological saline within eight hours of the defecation and stored at −80° C. until use.
To imitate the environment of the large intestine, a culture experiment was conducted by the following procedures. Bio Jr. 8 100 mLx8 culture apparatus (BJR-25NA1S-8M manufactured by Biott Corporation) was used, and the operations were according to the instructions of the device. The medium components except for the tocopherols and the oligosaccharides were dissolved in purified water and sterilized in an autoclave. The tocopherols and the oligosaccharides which were dissolved in dimethyl sulfoxide (DMSO, FUJIFILM Wako Pure Chemical Corporation) and in purified water, respectively, and which were then sterilized with a filter were added to the medium after the autoclave treatment. The culture temperature was 37° C., and the anaerobic condition was maintained during the culture period by blowing filter-sterilized CO2 into the culture vessels. […]

[2] = test system: bifidobacterial strains in infant fecal samples (feces A, feces B); test: Fecal culture: bifidobacterial count by quantitative PCR (Test Example 3); assay type: cell-based, human infant; conditions: after seven hours of culture, group without tocopherols = 1
Procedure: The feces A and the feces B prepared in Test Example 1 described above were used as fecal samples.
To imitate the environment of the large intestine, a culture experiment was conducted by the following procedures. Bio Jr. 8 100 mLx8 culture apparatus (BJR-25NA1S-8M manufactured by Biott Corporation) was used, and the operations were according to the instructions of the device. The medium components except for the tocopherols and the oligosaccharides were dissolved in purified water and sterilized in an autoclave, and the tocopherols and the oligosaccharides which were dissolved in dimethyl sulfoxide (DMSO, FUJIFILM Wako Pure Chemical Corporation) and in purified water, respectively, and which were then sterilized with a filter were added to the mixture after the autoclave treatment. The culture temperature was 37° C., and the anaerobic condition was maintained during the culture period by blowing filter-sterilized CO2 into the culture vessels. After adjusting the pH to 7.0, 100 μL (10 mg in terms of feces) of the fecal samples, which were diluted with physiological saline, were added, and anaerobic culture was started. To imitate the pH in the large intestine of an infant, the pH was controlled by neutralizing with 1M Na2CO3 when the pH became lower than 5.5 during the culture period. The media were collected 7 hours after starting the culture and centrifuged at 8000 rpm for 3 min at 4° C., and the supernatants and the precipitates were collected.
Using GENE PREP STAR PI-480 automated isolation system (Kurabo Industries Ltd. Japan), DNA was extracted from the precipitates collected in (2). Using the extracted DNA as templates and using the primers of SEQ ID NO: 1 (ctcctggaaacgggtgg) and SEQ ID NO: 2 ([…]), quantitative PCR was conducted with Applied Bio systems 7500 Fast & 7500 Real-Time PCR System (manufactured by Thermo Fisher), and the bacterial counts of bifidobacterial strains were measured. The PCR conditions were 40 cycles of denaturation at 95° C. for 5 seconds, subsequent annealing at 55° C. for 20 seconds and elongation at 72° C. for 30 seconds.
The bacterial counts of bifidobacterial strains after seven hours of culture, which were measured by the quantitative PCR, are shown in Table 5. The bacterial counts are the relative values where the bacterial counts of the groups without the addition of the tocopherols are regarded as 1.

SMILES	2′-FL Residual Rate ([1]; after 7-hr culture, YCFA medium, before culture = 100)	assimilation of 2′-fucosyllactose (in words) ([1]; after seven hours of culture)	bifidobacterial Count (Relative Value) ([2]; Feces A)	bifidobacterial Count (Relative Value) ([2]; Feces B)
C[C@@H]1O[C@@H](O[C@H]2[C@H](O[C@H]3[C@H](O)[C@@H](O)C(O)O[C@@H]3CO)O[C@H](CO)[C@H](O)[C@@H]2O)[C@@H](O)[C@H](O)[C@@H]1O (stereo partly drawn) [Comparative Example 1, 2′-Fucosyllactose]	114 mass %	remained in the supernatant without being assimilated	1	1
CC(=O)N[C@H]1[C@H]([C@H](O)[C@H](O)CO)O[C@@](OC[C@H]2O[C@@H](O[C@H]3[C@H](O)[C@@H](O)[C@H](O)O[C@@H]3CO)[C@H](O)[C@@H](O)[C@H]2O)(C(=O)O)C[C@@H]1O [Comparative Example 9, 6′-Sialyllactose]	–	–	1	1
